Data from patent publication US11311542B2, “Inhibitors of cyclin dependent kinase 7 (CDK7)” (Syros Pharmaceuticals, Inc., priority 2018, dated 2022).
Read-outs that look alike come from different tables or passages of the source.

Experiments:
[1] = target: CDK7/Cyclin H/MAT1 complex (Homo sapiens, UniProt P50613); assay: CDK7 kinase inhibition assay (Caliper/LabChip EZ Reader)
Method: (§2) Compounds described herein were assayed for inhibition of CDK7, CDK9, CDK12, and CDK2 activity at Biortus Biosciences (Jiangyin, Jiangsu Province, P.R. of China) using kinase assays for each CDK developed with a Caliper/LabChip EZ Reader (Perkin Elmer, Waltham, Mass.).
(§3) Furthermore, the CDK9 inhibition assay used CDK9/Cyclin T1 complex (8 nM) and “5-FAM-CDK9tide” peptide substrate (2 μM, synthesized fluorophore-labeled peptide with the following sequence: 5-FAM-GSRTPMY-NH2 (SEQ ID NO:2) where 5-FAM is defined above and NH2 signifies a C-terminal amide) with 10 mM MgCl2 in the buffer composition listed above. The CDK12 inhibition assay used CDK12 (aa686-1082)/Cyclin K complex (50 nM) and “5-FAM-CDK9tide” (2 μM) as defined above, with 2 mM MgCl2 in the buffer composition above. Additionally, the CDK2 inhibition assay used CDK2/Cyclin E1 complex (0.5 nM) and “5-FAM-CDK7tide” (2 μM; defined above) with 2 mM MgCl2 in the buffer composition above.
(§4) The incubation period at 27° C. for each CDK inhibition assay was chosen such that the fraction of phosphorylated peptide product produced in each assay, relative to the total peptide concentration, was approximately 20% (±5%) for the uninhibited kinase (35 min. for CDK7, 35 min. for CDK2, 3 hr. for CDK12, 15 min. for CDK9).

COV318 cells = assay: Inhibition of cell proliferation (CyQUANT Direct), COV318; format: cell-based, human; details: COV318, 72-hour
Method: (§1) HCC70 and MB453 cells are cell lines derived from human triple negative breast cancer COV318 and COV504 cells are cell lines derived from human ovarian cancer. Representative compounds of the invention were tested at different concentrations (from 4 μM to 126.4 pM; 0.5 log serial dilutions) for their ability to inhibit the proliferation of each of these cell lines. Known CDK inhibitors dinaciclib or N-((1S,3R)-3-((5-chloro-4-(1H-indol-3-yl) pyrimidin-2-yl)amino)cyclohexyl)-5-((E)-4-(dimethylamino)but-2-enamido)picolinamide and triptolide were used as positive controls. Cells were seeded at approximately 2,000 cells/well and grown in ATCC-formulated RPMI-1640 Medium (ATCC 30-2001)+10% FBS. The cells were cultured at 37° C. in a humidified chamber in the presence of 5% CO2. Proliferation assays were conducted over a 72-hour time period. CyQUANT® Direct Cell Proliferation Assay (Life Technologies, Chicago, Ill. USA) was used to assess the anti-proliferative effects of the compounds following manufacturer's directions and utilizing the reagents supplied with the CyQUANT® Direct Cell kit.

HCC70 cells = assay: Inhibition of cell proliferation (CyQUANT Direct), HCC70; format: cell-based, human; details: HCC70, 72-hour
Method: as §1

CDK2/Cyclin E1 complex = CDK2/Cyclin E1 complex (Homo sapiens, UniProt P24941); assay: CDK2 kinase inhibition assay (Caliper/LabChip EZ Reader)
[2] = target: CDK12 (aa686-1082)/Cyclin K complex (Homo sapiens, UniProt Q9NYV4); assay: CDK12 kinase inhibition assay (Caliper/LabChip EZ Reader)
Method: as §2, §3, §4

CDK9/Cyclin T1 complex = CDK9/Cyclin T1 complex (Homo sapiens, UniProt P50750); assay: CDK9 kinase inhibition assay (Caliper/LabChip EZ Reader)
Method: as §2, §3, §4

MB453 cells = assay: Inhibition of cell proliferation (CyQUANT Direct), MB453; format: cell-based, human; details: MB453, 72-hour
Method: as §1

COV504 cells = assay: Inhibition of cell proliferation (CyQUANT Direct), COV504; format: cell-based, human; details: COV504, 72-hour
Method: as §1

[3] = read-out: CDK7 IC50, CDK7/Cyclin H/MAT1 6 nM, ATP 2 mM, 35 min at 27° C.
[4] = read-out: CDK2 IC50, CDK2/Cyclin E1 0.5 nM, ATP 2 mM, 35 min at 27° C.
[5] = read-out: CDK12 IC50, CDK12 (aa686-1082)/Cyclin K 50 nM, ATP 2 mM, 3 hr at 27° C.
[6] = read-out: CDK9 IC50, CDK9/Cyclin T1 8 nM, ATP 2 mM, 15 min at 27° C.

CDK12 (aa686-1082)/Cyclin K complex, sequence (Q9NYV4 686-1082): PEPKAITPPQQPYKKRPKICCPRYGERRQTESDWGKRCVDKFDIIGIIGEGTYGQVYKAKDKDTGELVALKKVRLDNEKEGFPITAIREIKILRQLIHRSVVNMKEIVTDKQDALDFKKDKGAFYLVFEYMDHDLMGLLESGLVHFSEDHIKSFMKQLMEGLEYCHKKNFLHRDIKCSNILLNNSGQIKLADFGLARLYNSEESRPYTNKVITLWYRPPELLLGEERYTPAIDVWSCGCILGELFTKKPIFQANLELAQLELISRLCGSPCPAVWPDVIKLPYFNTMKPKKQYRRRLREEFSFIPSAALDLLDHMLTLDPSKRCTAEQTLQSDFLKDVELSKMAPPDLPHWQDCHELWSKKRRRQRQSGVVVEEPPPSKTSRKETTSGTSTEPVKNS
CDK12 (aa686-1082)/Cyclin K complex, sequence (O75909 whole entry partner, the tested form may be a part): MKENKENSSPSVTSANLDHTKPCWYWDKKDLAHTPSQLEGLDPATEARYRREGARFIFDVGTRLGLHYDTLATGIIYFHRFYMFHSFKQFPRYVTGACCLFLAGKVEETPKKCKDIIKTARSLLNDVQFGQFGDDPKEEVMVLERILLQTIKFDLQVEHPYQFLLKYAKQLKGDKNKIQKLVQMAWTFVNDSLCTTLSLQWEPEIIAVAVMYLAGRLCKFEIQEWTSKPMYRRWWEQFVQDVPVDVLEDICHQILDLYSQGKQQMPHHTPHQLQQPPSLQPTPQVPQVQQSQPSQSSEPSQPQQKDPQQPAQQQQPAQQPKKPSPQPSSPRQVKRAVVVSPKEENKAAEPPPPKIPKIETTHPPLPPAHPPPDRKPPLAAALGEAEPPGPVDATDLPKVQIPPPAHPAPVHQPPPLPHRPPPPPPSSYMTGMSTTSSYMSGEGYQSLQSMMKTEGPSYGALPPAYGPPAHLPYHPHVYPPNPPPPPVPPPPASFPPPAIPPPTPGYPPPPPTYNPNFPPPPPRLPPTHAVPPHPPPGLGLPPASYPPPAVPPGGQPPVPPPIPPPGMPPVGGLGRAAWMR
CDK9/Cyclin T1 complex, sequence (P50750 whole entry): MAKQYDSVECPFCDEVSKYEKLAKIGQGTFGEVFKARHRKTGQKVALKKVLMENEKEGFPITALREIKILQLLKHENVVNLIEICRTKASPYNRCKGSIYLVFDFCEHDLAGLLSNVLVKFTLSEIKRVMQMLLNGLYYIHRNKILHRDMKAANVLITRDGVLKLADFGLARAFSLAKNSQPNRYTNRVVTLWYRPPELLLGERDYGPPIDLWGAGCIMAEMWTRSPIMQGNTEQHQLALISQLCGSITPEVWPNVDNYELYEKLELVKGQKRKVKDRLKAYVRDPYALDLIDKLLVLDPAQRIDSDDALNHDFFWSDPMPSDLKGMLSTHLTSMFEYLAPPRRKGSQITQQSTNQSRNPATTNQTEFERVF
CDK9/Cyclin T1 complex, sequence (O60563 whole entry partner): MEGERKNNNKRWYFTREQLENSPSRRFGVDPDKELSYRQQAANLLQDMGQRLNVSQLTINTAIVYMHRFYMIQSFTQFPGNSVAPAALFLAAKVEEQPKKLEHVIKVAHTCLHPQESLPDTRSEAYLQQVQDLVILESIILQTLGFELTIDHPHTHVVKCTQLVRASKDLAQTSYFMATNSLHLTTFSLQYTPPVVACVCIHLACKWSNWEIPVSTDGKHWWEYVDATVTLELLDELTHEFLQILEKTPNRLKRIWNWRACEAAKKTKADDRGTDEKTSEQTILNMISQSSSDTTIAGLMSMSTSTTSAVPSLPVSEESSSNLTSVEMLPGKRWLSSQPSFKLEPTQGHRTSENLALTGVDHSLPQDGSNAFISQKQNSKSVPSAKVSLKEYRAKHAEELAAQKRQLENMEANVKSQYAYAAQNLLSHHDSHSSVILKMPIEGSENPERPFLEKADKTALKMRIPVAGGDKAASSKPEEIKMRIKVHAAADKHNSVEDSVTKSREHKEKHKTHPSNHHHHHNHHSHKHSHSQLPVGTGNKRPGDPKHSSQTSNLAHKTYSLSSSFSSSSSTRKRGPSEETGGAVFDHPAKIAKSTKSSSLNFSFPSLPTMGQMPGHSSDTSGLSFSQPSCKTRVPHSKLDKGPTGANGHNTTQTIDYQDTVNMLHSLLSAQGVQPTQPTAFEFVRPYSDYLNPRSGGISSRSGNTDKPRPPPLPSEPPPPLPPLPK
CDK7/Cyclin H/MAT1 complex, sequence (P50613 whole entry): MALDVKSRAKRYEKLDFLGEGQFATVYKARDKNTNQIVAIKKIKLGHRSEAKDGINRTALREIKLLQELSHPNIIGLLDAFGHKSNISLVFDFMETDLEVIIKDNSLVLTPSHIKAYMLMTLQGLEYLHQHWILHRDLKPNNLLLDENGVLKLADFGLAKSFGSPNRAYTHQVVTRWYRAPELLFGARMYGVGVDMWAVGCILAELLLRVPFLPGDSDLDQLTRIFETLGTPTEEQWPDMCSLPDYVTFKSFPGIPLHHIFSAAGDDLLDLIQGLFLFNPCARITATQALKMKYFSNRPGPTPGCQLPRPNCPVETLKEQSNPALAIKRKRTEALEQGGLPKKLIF
CDK7/Cyclin H/MAT1 complex, sequence (P51946 whole entry partner): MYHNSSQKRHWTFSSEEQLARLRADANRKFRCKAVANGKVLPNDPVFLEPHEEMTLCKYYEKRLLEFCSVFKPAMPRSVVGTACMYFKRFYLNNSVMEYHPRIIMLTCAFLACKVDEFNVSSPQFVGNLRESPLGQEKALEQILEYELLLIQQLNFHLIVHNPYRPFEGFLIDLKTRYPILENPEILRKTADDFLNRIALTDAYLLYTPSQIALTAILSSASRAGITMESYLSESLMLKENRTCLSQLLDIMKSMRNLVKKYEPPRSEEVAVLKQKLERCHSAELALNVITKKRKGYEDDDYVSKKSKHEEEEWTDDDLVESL
CDK7/Cyclin H/MAT1 complex, sequence (P51948 whole entry partner): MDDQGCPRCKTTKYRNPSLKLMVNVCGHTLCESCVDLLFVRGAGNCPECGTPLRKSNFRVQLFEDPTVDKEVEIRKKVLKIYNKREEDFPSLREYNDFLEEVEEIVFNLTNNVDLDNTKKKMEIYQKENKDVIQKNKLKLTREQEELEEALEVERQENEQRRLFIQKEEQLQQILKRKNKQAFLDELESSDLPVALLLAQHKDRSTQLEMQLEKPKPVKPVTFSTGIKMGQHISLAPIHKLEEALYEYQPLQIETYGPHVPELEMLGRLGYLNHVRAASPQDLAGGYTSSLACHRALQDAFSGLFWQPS

| Compound | IC50 [1] [nM] | IC50 (COV318 cells; Homo sapiens) [nM] | IC50 (HCC70 cells; Homo sapiens) [nM] | IC50 (CDK2/Cyclin E1 complex) [nM] | IC50 [2] [nM] | IC50 (CDK9/Cyclin T1 complex) [nM] | IC50 (MB453 cells; Homo sapiens) [nM] | IC50 (COV504 cells; Homo sapiens) [nM] | IC50 [1, 3] [nM] | IC50 (COV318 cells) [nM] | IC50 (HCC70 cells) [nM] | IC50 (CDK2/Cyclin E1 complex; [4]) [nM] | IC50 [2, 5] [nM] | IC50 (CDK9/Cyclin T1 complex; [6]) [nM] | IC50 (MB453 cells) [nM] | IC50 (COV504 cells) [nM] |
| --- | --- | --- | --- | --- | --- | --- | --- | --- | --- | --- | --- | --- | --- | --- | --- | --- |
| Cc1nsc(-c2ccc3c(-c4nc(N[C@H]5CCCNC5)ncc4C(F)(F)F)c[nH]c3c2)n1 [Compound 130] | < 30 | 100 to 500 | 100 to 500 | > 500 | > 500 | > 500 | 100 to 500 | 100 to 500 |  |  |  |  |  |  |  |  |
| C[C@H]1CC[C@H](Nc2ncc(C(F)(F)F)c(-c3c[nH]c4nc(-c5nnnn5C)ccc34)n2)CN1 [Compound 165, N-[(3S,6S)-6-methyl-3-piperidyl]-4-[6-(1-methyltetrazol-5-yl)-1H-pyrrolo[2,3-b]pyridin-3-yl]-5-(trifluoromethyl)pyrimidin-2-amine] | 30 to 100 | > 1000 | > 1000 | > 500 | > 500 | > 500 | 500 to 1000 | 500 to 1000 |  |  |  |  |  |  |  |  |
| Cc1noc(C)c1-c1ccc2c(-c3nc(N[C@@H]4CC[C@@H](C)NC4)ncc3C(F)(F)F)c[nH]c2n1 [Compound 125, 4-[6-(3,5-dimethylisoxazol-4-yl)-1H-pyrrolo-[2,3-b]-pyridin-3-yl]-N-[(3R,6R)-6-methyl-3-piperidyl]-5-(trifluoromethyl)pyrimidin-2-amine] | < 30 | 100 to 500 | 100 to 500 | > 500 | > 500 | > 500 | < 100 | < 100 |  |  |  |  |  |  |  |  |
| CNC(=O)[C@H]1CNC[C@@H](Nc2ncc(C(F)(F)F)c(-c3c[nH]c4nc(-c5nccs5)ccc34)n2)C1 [Compound 145, (3R, 5S)—N-methyl-5-[[4-(6-thiazol-2-yl-1H-pyrrolo[2,3-b]pyridin-3-yl)-5-(trifluoromethyl)pyrimidin-2-yl]amino]piperidine-3-carboxamide] | < 30 | > 1000 | 100 to 500 | > 500 | > 500 | > 500 | 100 to 500 | 100 to 500 |  |  |  |  |  |  |  |  |
| FC(F)(F)c1cnc(N[C@H]2CCCNC2)nc1-c1c[nH]c2cc(-c3ncco3)ccc12 [Compound 110, (S)-4-(6-(oxazol-2-yl)-1H-indol-3-yl)-N-(piperidin-3-yl)-5-(trifluoromethyl)pyrimidin-2-amine] | < 30 | 100 to 500 | < 100 | > 500 | > 500 | > 500 | < 100 | < 100 |  |  |  |  |  |  |  |  |
| Cc1noc(C)c1-c1ccc2c(-c3nc(N[C@H]4CCCNC4)ncc3C(F)(F)F)n[nH]c2n1 [Compound 118, 4-[6-(3,5-dimethylisoxazol-4-yl)-1H-pyrazolo-[3,4-b]-pyridin-3-yl]-N-[(3S)-3-piperidyl]-5-(trifluoromethyl)pyrimidin-2-amine] | < 30 | 100 to 500 | < 100 | > 500 | > 500 | > 500 | < 100 | < 100 |  |  |  |  |  |  |  |  |
| CC1(C)CC[C@H](Nc2ncc(C(F)(F)F)c(-c3c[nH]c4cc(-c5nccs5)ccc34)n2)CN1 [Compound 106, (S)—N-(6,6-dimethylpiperidin-3-yl)-4-(6-(thiazol-2-yl)-1H-indol-3-yl)-5-(trifluoromethyl)pyrimidin-2-amine] | < 30 | 100 to 500 | < 100 | > 500 | > 500 | > 500 | < 100 | < 100 |  |  |  |  |  |  |  |  |
| Cc1noc(C)c1-c1ccc2c(-c3nc(N[C@@H]4CNC[C@H](C(=O)N(C)C)C4)ncc3C(F)(F)F)c[nH]c2c1 [Compound 112, (3R,5S)-5-[[4-[6-(3,5-dimethylisoxazol-4-yl)-1H-indol-3-yl]-5-(trifluoromethyl)pyrimidin-2-yl]-amino]-N, N-dimethyl-piperidine-3-carboxamide] | < 30 | > 1000 | 100 to 500 | > 500 | > 500 | > 500 | 100 to 500 | 100 to 500 |  |  |  |  |  |  |  |  |
| (S)-tert-butyl 3-((4-(6-(3,5-dimethylisothiazol-4-yl)-1H-pyrrolo[2,3-b]pyridin-3-yl)-5-(trifluoromethyl)pyrimidin-2-yl)amino)piperidine-1-carboxylate [Compound 166] |  |  |  |  |  |  |  |  | < 30 | < 100 | < 100 | > 500 | > 500 | > 500 | < 100 | < 100 |
| FC(F)(F)c1cnc(N[C@H]2CCCNC2)nc1-c1n[nH]c2cc(-c3nccs3)ccc12 [Compound 103] | < 30 | 100 to 500 | 100 to 500 | > 500 | 100 to 500 | > 500 | < 100 | < 100 |  |  |  |  |  |  |  |  |
| (3S)-tert-butyl 3-((4-(6-(3,5-dimethylisoxazol-4-yl)-5-fluoro-1H-pyrrolo[2,3-b]pyridin-3-yl)-5-(trifluoromethyl)pyrimidin-2-yl)amino)piperidine-1-carboxylate [Compound 138] |  |  |  |  |  |  |  |  | < 30 | < 100 | < 100 | > 500 | > 500 | > 500 | < 100 | < 100 |
| CNC(=O)[C@H]1CNC[C@@H](Nc2ncc(C(F)(F)F)c(-c3c[nH]c4nc(-c5c(C)noc5C)ccc34)n2)C1 [Compound 120] | < 30 | 500 to 1000 | 100 to 500 | > 500 | > 500 | > 500 | < 100 | 100 to 500 |  |  |  |  |  |  |  |  |
| Cc1noc(C)c1-c1ccc2c(-c3nc(N[C@H]4CCC(C)(C)NC4)ncc3C(F)(F)F)n[nH]c2n1 [Compound 144] | < 30 | > 1000 | < 100 | > 500 | > 500 | > 500 | < 100 | < 100 |  |  |  |  |  |  |  |  |
| Cc1nc(-c2ccc3c(-c4nc(N[C@@H]5CC[C@@H](C)NC5)ncc4C(F)(F)F)c[nH]c3n2)no1 [Compound 163, 4-[6-(5-methyl-1,2,4-oxadiazol-3-yl)-1H-pyrrolo[2,3-b]pyridin-3-yl]-N-[(3R, 6R)-6-methyl-3-piperidyl]-5-(trifluoromethyl)pyrimidin-2-amine] | < 30 | > 1000 | < 100 | > 500 | > 500 | > 500 | < 100 | < 100 |  |  |  |  |  |  |  |  |
| Cc1nnc(-c2ccc3c(-c4nc(N[C@H]5CCCNC5)ncc4C(F)(F)F)c[nH]c3c2)s1 [Compound 123] | < 30 | 100 to 500 | 100 to 500 | > 500 | > 500 | > 500 | < 100 | < 100 |  |  |  |  |  |  |  |  |
| Cc1noc(C)c1-c1ccc2c(-c3nc(N[C@@H]4CNC[C@H](O)C4)ncc3C(F)(F)F)c[nH]c2n1 [Compound 133, (3R,5S)-5-[[4-[6-(3,5-dimethylisoxazol-4-yl)-1H-pyrrolo[2,3-b]pyridin-3-yl]-5-(trifluoromethyl)pyrimidin-2-yl]amino]piperidin-3-ol] | < 30 | 100 to 500 | < 100 | > 500 | > 500 | > 500 | < 100 | < 100 |  |  |  |  |  |  |  |  |
| Cc1ncoc1-c1ccc2c(-c3nc(N[C@H]4CCCNC4)ncc3C(F)(F)F)c[nH]c2n1 [Compound 161, 4-[6-(4-methyloxazol-5-yl)-1H-pyrrolo[2,3-b]pyridin-3-yl]-N-[(3S)-3-piperidyl]-5-(trifluoromethyl)pyrimidin-2-amine] | < 30 | 100 to 500 | < 100 | > 500 | > 500 | > 500 | < 100 | < 100 |  |  |  |  |  |  |  |  |
| Cc1nsc(-c2ccc3c(-c4nc(N[C@H]5CCCNC5)ncc4C(F)(F)F)c[nH]c3n2)n1 [Compound 142] | < 30 | 500 to 1000 | < 100 | > 500 | > 500 | > 500 | < 100 | < 100 |  |  |  |  |  |  |  |  |
| Cc1nscc1-c1ccc2c(-c3nc(N[C@H]4CCCNC4)ncc3C(F)(F)F)c[nH]c2n1 [Compound 149] | < 30 | < 100 | < 100 | > 500 | > 500 | > 500 | < 100 | < 100 |  |  |  |  |  |  |  |  |
